In patent publication US11931428B2, “Selective hydrogen sulfide probe and uses thereof” (Wake Forest University Health Sciences, priority 2019, dated 2024):

What was measured:
[1] = Selectivity of fluorescence turn-on towards H2S versus biological thiols and nucleophiles in PBS buffer; conditions: probe 20 μM
Method: FIG. 1. Fluorescence response (λex: 330 nm) of probes (20 μM) in PBS buffer (pH 7.4), at room temperature, and in the presence of various biological thiols and nucleophiles: (1) PBS buffer alone; (2) 50 μM Na2S; (3) 100 μM cysteine; (4) 1 mM glutathione; (5) 100 μM serine; (6) 100 μM lysine; (7) 1 mM glutathione+50 μM Na2S. (A): Probe AL1 and (B): Probe AL3.
To assess our hypothesis, the selectivity of our design towards H2S was first assessed by incubating AL1 (20 μM) with various biological thiols and nucleophiles in PBS buffer (FIG. 1A). After reacting for 10 min at room temperature, the resulting turn-on response was gauged using fluorescence spectroscopy. The results from this assay were indeed stunning. In the presence of 50 μM Na2S (an H2S equivalent at physiological pH) a greater than 100-fold increase in relative fluorescence intensity was observed. […] Moreover, this assay confirmed that AL1 is not consumed by the presence of other thiols and that its reactivity towards H2S is retained in their presence (FIG. 1A, Column 7). To confirm that the gem-dimethyl group affords enhanced differentiation, we also generated AL3 which lacks the steric shield alpha to the ester carbonyl.

[2] = Stability in PBS buffer over a 24 h incubation period (fluorescence); type: physicochemical
Method: (§1) FIG. 2. Fluorescence response (λex: 330 nm) of probes (20 μM) at room temperature and under varying conditions: (A and B): (1): 24 hour incubation period in PBS buffer alone; (2): 24 hour incubation period in PBS buffer followed by the addition of Na2S (50 μM). (C and D): (1): 10 min incubation period in fetal bovine plasma alone; (2): 10 min incubation period in fetal bovine plasma and in the presence of Na2S (50 μM). AL1: 2A and 2C and AL3: 2B and 2D.
(§2) To further establish the increased durability of AL1 relative to AL3, we tested the stability of both compounds in PBS buffer over a 24 h incubation period (FIGS. 2A and 2B). […] The stability of AL1 and AL3 was also assessed in fetal bovine plasma (FIGS. 2C and 2D).

[3] = Stability in fetal bovine plasma (fluorescence); type: in vitro ADME; conditions: probe 20 μM
Method: as §1, §2

[4] = Time-dependent and concentration-dependent fluorescence sensing of H2S in PBS buffer; conditions: AL1 20 μM, Na2S 50 μM, PBS buffer pH 7.4, room temperature
Method: FIG. 3. (A) Time-dependent fluorescence emission (λex: 330 nm) of AL1 (20 μM) in the presence of Na2S (50 μM). (B) Fluorescence intensity (λex: 330 nm) of AL1 ([…]) in response to increasing Na2S concentrations.
The efficiency of AL1 in sensing H2S in PBS buffer (pH 7.4) and at room temperature was also assessed (FIG. 3A). Under these conditions, the resulting fluorescence intensity reached a maximum in less than two minutes, highlighting that our designed probe is not only selective but also highly reactive towards H2S—a necessary feature for detecting analytes which are short-lived. To determine if AL1 could also be used to detect H2S quantitatively in buffer, the resulting fluorescence was measured in response to a series of different concentrations of H2S (FIG. 3B). Indeed, the ensuing fluorescence intensity increased in a linear fashion in the range of 0-20 μM H2S and with a detection limit of 0.05 μM.

HeLa cells = experiment: Confocal fluorescence imaging of H2S in live HeLa cells; type: cell-based; conditions: for fluorescence in cells upon treatment with Na2S / fluorescence in cells, probe alone (no Na2S): HeLa, AL2 10 μM; for fluorescence in cells upon treatment with Na2S: 50 μM Na2S, AL1 12.5 μM, ex 405 nm, em 452 nm; for fluorescence in cells, probe alone (no Na2S): AL1 12.5 μM 45 min then washed
Method: FIG. 4. (A) Visualization of H2S in live HeLa cells with AL1 (12.5 μm). Imaging: ex: 405 nm, em: 452 nm. (a and b): No Na2S added (control); (c and d): Addition of Na2S (50 μm). Scale bar is set to 20 μm. (B) Visualization of H2S in live HeLa cells with AL4 (5 μm). Imaging: ex: 561 nm, em: 587 nm. (e and f): No Na2S added (control); g and h: Addition of Na2S (25 μM). Scale bar is set to 20 μm.
FIG. 5. Fluorescence images of live HeLa cells treated with AL2 (10 μM); (a and b): No Na2S (control); (c and d): Addition of Na2S (50 μM); (e and f): Fluorescence images of HeLa cells pretreated with biotin (2 mM) followed by treatments with AL2 (10 μM) and Na2S (50 μM). Imaging: ex: 405 nm, em: 452 nm. Scale bar is set to 20 μm.
Probe AL1 was also shown to be useful in imaging H2S in live cells using confocal microscopy. Cultured HeLa cells were incubated with AL1 (12.5 μM) for 45 min and then washed to remove any excess probe. […] Probe AL4 utilizes resorufin as its latent fluorescent reporter which has the added benefit of longer excitation and emission wavelengths, further boosting its potential in tissue imaging applications.
(§3) As a proof of concept we generated AL2, a cancer cell-specific H2S probe, by coupling biotin to its amine handle (Scheme 1). W. X. Ren et al, Chem. Commun. 2015, 51, 10403-10418; X. Song et al, RSC Adv. 2017, 7, 15817-15822; M. H. Lee et al, Chem. Soc. Rev. 2018, 47, 28-52. Fluorescence imaging experiments were then conducted using both a biotin positive (HeLa) and biotin negative (HEK293) cell line to confirm its selective targeting and delivery. […] To confirm that AL2 was targeting biotin cell surface receptors, in a separate experiment, HeLa cells were pre-treated with biotin prior to the addition of AL2. […] The selectivity of AL2 was further established using HEK293 (noncancerous human embryonic kidney) cells.

HEK293 cells = experiment: Fluorescence imaging in live HEK293 cells (biotin negative); type: cell-based, human; conditions: AL2 10 μM, with or without Na2S 50 μM
Method: FIG. 6. Fluorescence images of live HEK293 cells. (a and b): Treatment with AL2 (10 μM) alone; (c and d): Treatment with AL2 (10 μM) followed by treatment with Na2S (50 μM). Imaging: ex: 405 nm, em: 452 nm. Scale bar is set to 20 μm.
as §3

Row | Structure (SMILES) | increase in relative fluorescence intensity ([1]; 50 μM Na2S, PBS buffer pH 7.4, 10 min, room temperature, λex 330 nm) | reactivity towards H2S in the presence of other thiols ([1]; 1 mM glutathione + 50 μM Na2S, PBS pH 7.4 (FIG. 1A, Column 7)) | selectivity: fluorescence in the presence of other biologically relevant thiols and nucleophiles ([1]; 100 μM cysteine, 1 mM glutathione, 100 μM serine, 100 μM lysine, PBS pH 7.4, 10 min, room temperature) | fluorescence on addition of Na2S after prolonged exposure to buffer ([2]; 24 h in PBS buffer, then Na2S 50 μM) | stability in PBS buffer alone ([2]; probe 20 μM, 24 h incubation, room temperature) | turn-on response in fetal bovine plasma when Na2S present ([3]; 10 min, Na2S 50 μM) | stability in fetal bovine plasma (fluorescence in the absence of Na2S) ([3]; 10 min incubation, room temperature) | time for fluorescence intensity to reach a maximum [4] | fluorescence in cells upon treatment with Na2S (HeLa cells) | fluorescence in cells, probe alone (no Na2S) (HeLa cells) | fluorescence in cells pre-treated with biotin, after Na2S (HeLa cells; HeLa pretreated with biotin 2 mM, then AL2 10 μM and Na2S 50 μM) | fluorescence in cells, even upon addition of exogenous Na2S (HEK293 cells)
1 | CC(=O)NCCS[Se]CC(C)(C)C(=O)Oc1ccc2ccc(=O)oc2c1 [AL1] | greater than 100 fold | retained | no increase in fluorescence was detected | impressive turn-on fluorescence | superb stability | marked turn-on response | remarkable stability | less than two | strong blue fluorescence | did not observe any fluorescent cells | – | –
2 | CC(C)(C[Se]SCCNC(=O)CCCC[C@@H]1SC[C@@H]2NC(=O)N[C@@H]21)C(=O)Oc1ccc2ccc(=O)oc2c1 [AL2] | – | – | – | – | – | – | – | – | strong blue fluorescent signal | minimal fluorescence | did not produce any fluorescence | negligible fluorescence
